These are literature values, as cited in patent US20260102357A1, “Sulfur-Containing Ionizable Lipids for the Delivery of Therapeutic Agents” (NanoVation Therapeutics Inc., priority 2022, published 2026).

The conditions of the data set: delivery of siRNA; fold less siRNA than KC2.

On to `CCCCC/C=C\C/C=C\CCCCCCCCC(CCCCCCCC/C=C\C/C=C\CCCCC)OC(=O)CCCN(C)C` [MC3, DLin-MC3-DMA], for which the “siRNA required relative to KC2” value is reported as “about 3 times less”.
